Measured values from PubChem BioAssay (NCI).
“And” between values parts separate entries of the source, which are not always exact repeats. Equal entries are not always repeated.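 The compound was tested at five concentrations on cells cultured in 96-well plates, with a 48-hour exposure period. The concentration for 50% growth inhibition is given as GI50. TGI: total growth inhibition.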

Assays:
Assay in all cases: NCI tumour cell line growth inhibition, 48 h
SK-OV-3 ovarian = tested on: SK-OV-3 ovarian
IGROV1 ovarian = tested on: IGROV1 ovarian
U251 CNS = tested on: U251 CNS
HOP-92 NSCLC = tested on: HOP-92 NSCLC
SF-295 CNS = tested on: SF-295 CNS
HCC-2998 colon = tested on: HCC-2998 colon
SNB-19 CNS = tested on: SNB-19 CNS
K-562 leukemia = tested on: K-562 leukemia
NCI-H226 lung = tested on: NCI-H226 lung
CAKI-1 renal = tested on: CAKI-1 renal
M14 melanoma = tested on: M14 melanoma
NCI-H23 lung = tested on: NCI-H23 lung
MDA-MB-435 = tested on: MDA-MB-435
OVCAR-5 ovarian = tested on: OVCAR-5 ovarian
SN12C renal = tested on: SN12C renal
COLO 205 colon = tested on: COLO 205 colon
ACHN renal = tested on: ACHN renal
SK-MEL-28 melanoma = tested on: SK-MEL-28 melanoma
PC-3 prostate = tested on: PC-3 prostate
NCI-H460 lung = tested on: NCI-H460 lung
LOX IMVI melanoma = tested on: LOX IMVI melanoma
SNB-75 CNS = tested on: SNB-75 CNS
NCI/ADR-RES ovarian = tested on: NCI/ADR-RES ovarian
UO-31 renal = tested on: UO-31 renal
HT29 colon = tested on: HT29 colon
A549 NSCLC = tested on: A549 NSCLC
SK-MEL-2 melanoma = tested on: SK-MEL-2 melanoma
RPMI-8226 leukemia = tested on: RPMI-8226 leukemia
OVCAR-8 ovarian = tested on: OVCAR-8 ovarian
HCT-116 colon = tested on: HCT-116 colon
HOP-62 NSCLC = tested on: HOP-62 NSCLC
SW-620 colon = tested on: SW-620 colon
SK-MEL-5 melanoma = tested on: SK-MEL-5 melanoma
MOLT-4 leukemia = tested on: MOLT-4 leukemia
MDA-MB-231 breast = tested on: MDA-MB-231 breast
MDA-N = tested on: MDA-N
TK-10 renal = tested on: TK-10 renal
OVCAR-4 ovarian = tested on: OVCAR-4 ovarian
HCT-15 colon = tested on: HCT-15 colon
HS 578T breast = tested on: HS 578T breast
DU-145 prostate = tested on: DU-145 prostate
T-47D breast = tested on: T-47D breast
NCI-H522 lung = tested on: NCI-H522 lung
UACC-257 melanoma = tested on: UACC-257 melanoma
SR leukemia = tested on: SR leukemia
OVCAR-3 ovarian = tested on: OVCAR-3 ovarian
CCRF-CEM leukemia = tested on: CCRF-CEM leukemia
HL-60(TB) leukemia = tested on: HL-60(TB) leukemia
SF-539 CNS = tested on: SF-539 CNS
KM12 colon = tested on: KM12 colon
UACC-62 melanoma = tested on: UACC-62 melanoma
786-0 renal = tested on: 786-0 renal
SF-268 CNS = tested on: SF-268 CNS
MALME-3M melanoma = tested on: MALME-3M melanoma
EKVX NSCLC = tested on: EKVX NSCLC
BT-549 breast = tested on: BT-549 breast
A498 renal = tested on: A498 renal

c1ccc(N=C(N2CCCCC2)N(CCN2CCCCC2)c2ccccc2)cc1
TGI (SK-OV-3 ovarian): 14 µM
TGI (IGROV1 ovarian): 12.1 µM
TGI (U251 CNS): 5.39 µM
TGI (HOP-92 NSCLC): 6.2 µM
TGI (SF-295 CNS): 2210 nM
TGI (HCC-2998 colon): 5160 nM
TGI (SNB-19 CNS): 14.4 µM
TGI (K-562 leukemia): 4270 nM
TGI (NCI-H226 lung): 16 µM
TGI (CAKI-1 renal): 14.1 µM
TGI (M14 melanoma): 16.1 µM
TGI (NCI-H23 lung): 7.17 µM
TGI (MDA-MB-435): 9.01 µM
TGI (OVCAR-5 ovarian): 8.01 µM
TGI (SN12C renal): 12.5 µM
TGI (COLO 205 colon): 11.2 µM
TGI (ACHN renal): 4.58 µM
TGI (SK-MEL-28 melanoma): 8.65 µM
TGI (PC-3 prostate): 3.72 µM
TGI (NCI-H460 lung): 2020 nM
TGI (LOX IMVI melanoma): 2390 nM
TGI (SNB-75 CNS): 6.44 µM
TGI (NCI/ADR-RES ovarian): 4.29 µM
TGI (UO-31 renal): 8070 nM
TGI (HT29 colon): 2930 nM
TGI (A549 NSCLC): 14.2 µM
TGI (SK-MEL-2 melanoma): 4.64 µM
TGI (RPMI-8226 leukemia): 627 nM
TGI (OVCAR-8 ovarian): 11.3 µM
TGI (HCT-116 colon): 4.18 µM
TGI (HOP-62 NSCLC): 3.07 µM
TGI (SW-620 colon): 13.7 µM
TGI (SK-MEL-5 melanoma): 3.3 µM
TGI (MOLT-4 leukemia): 1740 nM
TGI (MDA-MB-231 breast): 11000 nM
TGI (MDA-N): 2960 nM
TGI (TK-10 renal): 14200 nM
TGI (OVCAR-4 ovarian): 17000 nM
TGI (HCT-15 colon): 12.7 µM
TGI (HS 578T breast): 3.51 µM
TGI (DU-145 prostate): 12.7 µM
TGI (T-47D breast): 9.23 µM
TGI (NCI-H522 lung): 4.58 µM
TGI (UACC-257 melanoma): 6610 nM
TGI (SR leukemia): 2.31 µM
TGI (OVCAR-3 ovarian): 2510 nM
TGI (CCRF-CEM leukemia): 2030 nM
TGI (HL-60(TB) leukemia): 1.02 µM

[NH-]c1ncnc2c1N=C[N+]2=CC=CCO
TGI (MDA-N): > 100000 nM

O=C(OC1C(Oc2ccccc2COC(=O)C2(O)C=CCCC2=O)OC(CO)C(O)C1O)c1ccccc1 (centres undefined)
TGI (SK-OV-3 ovarian): > 100 µM
TGI (IGROV1 ovarian): > 100 µM
TGI (SF-539 CNS): > 100000 nM
TGI (U251 CNS): > 100 µM
TGI (HOP-92 NSCLC): 42.5 µM
TGI (SNB-19 CNS): > 100 µM
TGI (KM12 colon): > 100 µM
TGI (K-562 leukemia): > 100000 nM
TGI (NCI-H226 lung): > 100 µM
TGI (UACC-62 melanoma): > 100000 nM
TGI (CAKI-1 renal): 28.3 µM
TGI (786-0 renal): > 100000 nM
TGI (M14 melanoma): > 100 µM
TGI (NCI-H23 lung): > 100 µM
TGI (MDA-MB-435): > 100 µM
TGI (OVCAR-5 ovarian): > 100 µM
TGI (SN12C renal): > 100 µM
TGI (COLO 205 colon): 90.3 µM
TGI (ACHN renal): > 100 µM
TGI (SK-MEL-28 melanoma): > 100 µM
TGI (PC-3 prostate): > 100 µM
TGI (NCI-H460 lung): > 100000 nM
TGI (LOX IMVI melanoma): > 100000 nM
TGI (SNB-75 CNS): 60 µM
TGI (NCI/ADR-RES ovarian): > 100 µM
TGI (UO-31 renal): > 100000 nM
TGI (HT29 colon): > 100000 nM
TGI (A549 NSCLC): 38.8 µM
TGI (SF-268 CNS): 93500 nM
TGI (SK-MEL-2 melanoma): > 100 µM
TGI (RPMI-8226 leukemia): 58100 nM
TGI (OVCAR-8 ovarian): > 100 µM
TGI (HCT-116 colon): > 100 µM
TGI (HOP-62 NSCLC): > 100 µM
TGI (SW-620 colon): > 100 µM
TGI (SK-MEL-5 melanoma): 17.9 µM
TGI (MOLT-4 leukemia): 76900 nM
TGI (MDA-MB-231 breast): > 100000 nM
TGI (MDA-N): > 100000 nM
TGI (TK-10 renal): > 100000 nM
TGI (OVCAR-4 ovarian): > 100000 nM
TGI (HCT-15 colon): > 100 µM
TGI (HS 578T breast): 56.4 µM
TGI (DU-145 prostate): > 100 µM
TGI (NCI-H522 lung): 51.1 µM
TGI (UACC-257 melanoma): > 100000 nM
TGI (MALME-3M melanoma): 82.1 µM
TGI (SR leukemia): > 100 µM
TGI (HL-60(TB) leukemia): 54.6 µM

CCC(C)C1NC(=O)C(NC(=O)C(CC(C)C)N(C)C(=O)[C@@H]2C=CCN2C(=O)[C@H](C)O)C(C)OC(=O)[C@H](Cc2ccc(OC)cc2)N(C)C(=O)[C@@H]2CCCN2C(=O)[C@H](CC(C)C)NC(=O)C(C)C(=O)[C@H](C(C)C)OC(=O)CC1O (some centres undefined)
TGI (SK-OV-3 ovarian): 0.0317 µM
TGI (IGROV1 ovarian): 0.0193 µM
TGI (SF-539 CNS): 4.67 nM
TGI (U251 CNS): 0.018 µM
TGI (HOP-92 NSCLC): 0.0382 µM
TGI (SF-295 CNS): 20 nM
TGI (HCC-2998 colon): 14.7 nM
TGI (SNB-19 CNS): 0.0556 µM
TGI (K-562 leukemia): 11.6 nM and 10.4 nM
TGI (UACC-62 melanoma): 5 nM
TGI (CAKI-1 renal): 0.16 µM
TGI (786-0 renal): 13.5 nM and 10.5 nM
TGI (M14 melanoma): 0.0123 µM
TGI (NCI-H23 lung): 0.00917 µM
TGI (MDA-MB-435): 0.0132 µM
TGI (OVCAR-5 ovarian): 0.0738 µM
TGI (SN12C renal): 0.015 µM
TGI (ACHN renal): 0.0513 µM
TGI (SK-MEL-28 melanoma): 0.00567 µM
TGI (PC-3 prostate): 0.0271 µM
TGI (NCI-H460 lung): 12.5 nM and 22.7 nM
TGI (LOX IMVI melanoma): 10.5 nM
TGI (SNB-75 CNS): 0.0126 µM
GI50 (NCI/ADR-RES ovarian): 59.4 nM
TGI (NCI/ADR-RES ovarian): 11.7 µM
TGI (UO-31 renal): 62.6 nM and 406 nM
TGI (HT29 colon): 33.5 nM and 15.5 nM
TGI (A549 NSCLC): 0.0131 µM
TGI (SF-268 CNS): 10.9 nM and 18.6 nM
TGI (RPMI-8226 leukemia): 20.1 nM
TGI (OVCAR-8 ovarian): 0.0386 µM
TGI (HOP-62 NSCLC): 0.0177 µM
TGI (SW-620 colon): 0.0545 µM
TGI (SK-MEL-5 melanoma): 0.0102 µM
TGI (MOLT-4 leukemia): 8.05 nM
TGI (EKVX NSCLC): 34.5 nM
TGI (MDA-MB-231 breast): 35.1 nM and 94.3 nM
TGI (MDA-N): 18.8 nM
TGI (TK-10 renal): 68.2 nM and 24.6 nM
TGI (OVCAR-4 ovarian): 8.81 nM and 11.2 nM
TGI (HCT-15 colon): 0.111 µM
TGI (BT-549 breast): 15.3 nM
TGI (DU-145 prostate): 0.0317 µM
TGI (T-47D breast): 0.0109 µM
TGI (NCI-H522 lung): 0.0108 µM
TGI (UACC-257 melanoma): 15.6 nM and 13.4 nM
TGI (MALME-3M melanoma): 0.0134 µM
TGI (SR leukemia): > 100 µM
TGI (A498 renal): 47.1 nM and 48.1 nM
TGI (OVCAR-3 ovarian): 28.2 nM and 11.2 nM
TGI (CCRF-CEM leukemia): 11.4 nM
